Structures can show the parent of a compound that is named as a salt.

Data set [1] can be described thus: Chemical stability of MMF prodrugs in pH 8 phosphate buffer. The class given is physicochemical. The conditions noted are these: 50 mM buffer phosphate pH 8, 37° C., HPLC-UV, first-order decay. The protocol: Stock solutions of the compounds in acetonitrile or acetonitrile/MeOH were prepared at 0.05M. A 0.010 mL aliquot of the stock was spiked into 1 mL of 50 mM buffer phosphate pH 8 and incubated at 37° C. Typically, aliquots (0.010 mL) were sampled at different time points and immediately injected in the HPLC with UV detection (211 nm). The peak areas corresponding to the compounds were plotted against time and the data were fitted to a first-order mono-exponential decay where the rate constant and the half-life were determined from the slope (Table 2).

Data set [2] is described as follows: Physical stability in crystalline form by thermogravimetric analysis (TGA). In kind it is physicochemical. To be noted: 55° C.; for weight loss vs time (TGA): crystalline form. The protocol: The physical stability of compounds of the present invention and dimethyl fumarate (DMF) were measured via thermogravimetric analysis (TGA).

On to `COC(=O)/C=C/C(=O)OCCN(C)S(C)(=O)=O` [Compound 1, Methyl (2-(N-methylmethylsulfonamido)ethyl) fumarate], for which, in data set [1], the “pH 8 (t½, min)” value turned out to be 187 min. Besides, the “weight loss vs time (TGA)” value in data set [2] is reported as “no change”.

`COC(=O)/C=C/C(=O)OCCNS(C)(=O)=O` [Compound 2, Methyl (2-(methylsulfonamido)ethyl) fumarate]: the “pH 8 (t½, min)” value in data set [1] was found to be 143.5 min. The “weight loss vs time (TGA)” value in data set [2] is “no change”.

In the case of `COC(=O)/C=C/C(=O)OCCN1CCCS1(=O)=O` [Compound 6, 2-(1,1-Dioxidoisothiazolidin-2-yl)ethyl methyl fumarate], the “pH 8 (t½, min)” value in data set [1] stood at 202 min.

Consider `COC(=O)/C=C/C(=O)OC` [DMF, dimethyl fumarate, reference compound], for which, in data set [2] (in less than 2 hours), the “weight loss (TGA)” value was around 100%.
